Data on eleven molecules can be found in patent publication US4016159A, “Acylamino-cephem-carboxylic acids containing an amidino or guanidino group in the molecule” (Hoechst Aktiengesellschaft, priority 1973, dated 1977).

What all share (format): cell-based
Assay [1] concerns Streptococcus D. The assay is described as follows: Minimum inhibition concentration (MIC), Table 4. The note with it: Germ: Streptococcus D; for MIC: Streptococcus, read-out: Minimum inhibition concentration (MIC). The text has this: (§1) Minimum inhibition concentration (MIC) in γ/ml
The subject of assay [2] is Staphylococcus aureus SG 511. In words: Minimum inhibition concentration (MIC), Table 5. The note with it: for MIC: Staphylococcus aureus, SG511, Germ: Staphylococcus aureus SG 511, read-out: Minimum inhibition concentration (MIC).
Excerpt: as §1
Germ: Staphylococcus aureus SG 511

The subject of assay [3] is Staphylococcus aureus 285. The assay is described as follows: Minimum inhibition concentration (MIC), Table 1. As to conditions: for MIC: Staphylococcus aureus, 285, Germ: Staphylococcus aureus 285, read-out: Minimum inhibition concentration (MIC).
Excerpt: as §1
Germ: Staphylococcus aureus 285

Assay [4] deals with Streptococcus pyogenes A. The assay is described as follows: Minimum inhibition concentration (MIC), Table 3. As to conditions: Germ: Streptococcus pyogenes A; for MIC: read-out: Minimum inhibition concentration MIC. The text has this: Minimum inhibition concentration MIC in γ/ml
Germ: Streptococcus pyogenes A

Values after ≈ are worked out from the molar mass of the structure shown.

As to `N=C(N)c1ccc(CC(=O)NC2C(=O)N3C(C(=O)O)=C(CSc4nnc(-c5ccccc5)s4)CSC23)cc1` (centres unmarked) [Example 57, 3-[(5-phenyl-1,3,4-thiadiazole-2-yl)-thiomethyl]-7-(4-amidinophenylacetamido)-Δ3-cephem-4-carboxylic acid], the MIC in assay [1] was 10 to 50 µg/mL (≈ 17.6 to 88.2 µM); in assay [2], 0.0196 to 0.0391 µg/mL (≈ 0.0346 to 0.069 µM); in assay [3] it was 0.156 to 0.391 µg/mL (≈ 0.275 to 0.69 µM); in assay [4], 0.000391 to 0.0078 µg/mL (≈ 0.00069 to 0.0138 µM).

With `O=C(COc1ccc(C2=NCCCN2)cc1)NC1C(=O)N2C(C(=O)O)=C(CSc3nncs3)CSC12` (centres unmarked) [Example 62], the MIC in assay [1] was 10 to 50 µg/mL (≈ 18.3 to 91.5 µM); in assay [2], 0.0625 to 0.078 µg/mL (≈ 0.114 to 0.143 µM); in assay [3], 0.5 to 1.25 µg/mL (≈ 0.915 to 2.29 µM); in assay [4], 0.008 to 0.0156 µg/mL (≈ 0.0146 to 0.0285 µM).

`N=C(N)c1ccc(OCC(=O)NC2C(=O)N3C(C(=O)O)=C(CSc4nncs4)CSC23)cc1` (centres unmarked) [Example 63, 3-[(1,3,4-thiadiazole-2-yl)-thiomethyl]-7-(4amidinophenoxyacetamido)-Δ 3-cephem-4-carboxylic acid]: the MIC in assay [1] lay within 10 to 50 µg/mL (≈ 19.7 to 98.7 µM); in assay [2] it was 0.0625 to 0.078 µg/mL (≈ 0.123 to 0.154 µM); in assay [3], 0.156 to 0.391 µg/mL (≈ 0.308 to 0.772 µM); in assay [4], 0.008 to 0.0156 µg/mL (≈ 0.0158 to 0.0308 µM).

Turning to `Cc1csc(SCC2=C(C(=O)O)N3C(=O)C(NC(=O)COc4ccc(C(=N)N)cc4)C3SC2)n1` (centres unmarked) [Example 64, 3-[(4-methyl-1,3-thiazole-2-yl)-thiomethyl]-7-(4-amidinophenoxyacetamido)-Δ 3-cephem-4-carboxylic acid], the “Minimum inhibition concentration (MIC)” value fell in the range of 10 to 50 µg/mL in assay [1], 0.0625 to 0.078 µg/mL in assay [2] (Germ: Staphylococcus aureus SG 511), 0.5 to 1.25 µg/mL in assay [3] (Germ: Staphylococcus aureus 285) and 0.000391 to 0.0078 µg/mL in assay [4].

In the case of `N=C(N)c1ccc(OCC(=O)NC2C(=O)N3C(C(=O)O)=C(CSc4nnc(-c5ccccc5)s4)CSC23)cc1` (centres unmarked) [Example 65, 3-[(5-phenyl-1,3,4-thiadiazole-2-yl)-thiomethyl]-7-(4-amidinophenoxyacetamido)-Δ 3-cephem-4-carboxylic acid], the MIC in assay [1] fell in the range of 10 to 50 µg/mL (≈ 17.2 to 85.8 µM); in assay [2], 0.0196 to 0.0391 µg/mL (≈ 0.0336 to 0.0671 µM); in assay [3] it was 0.156 to 0.391 µg/mL (≈ 0.268 to 0.671 µM); in assay [4] it was 0.000391 to 0.0078 µg/mL (≈ 0.000671 to 0.0134 µM).

`CCCc1nnc(SCC2=C(C(=O)O)N3C(=O)C(NC(=O)COc4ccc(C(=N)N)cc4)C3SC2)s1` (centres unmarked) [Example 68, 3-[(5-n-propyl-1,3,4-thiadiazole-2-yl)-thiomethyl]-7-(4-amidinophenoxyacetamido)-Δ 3-cephem-4-carboxylic acid]: the MIC in assay [1] lay within 10 to 50 µg/mL (≈ 18.2 to 91.1 µM); in assay [2], 0.0625 to 0.078 µg/mL (≈ 0.114 to 0.142 µM); in assay [3], 0.5 to 1.25 µg/mL (≈ 0.911 to 2.28 µM); in assay [4], 0.008 to 0.0156 µg/mL (≈ 0.0146 to 0.0284 µM).

`CSc1nc(SCC2=C(C(=O)O)N3C(=O)C(NC(=O)Cc4ccc(C5=NCCCN5)cc4)C3SC2)nc(-c2ccccc2)n1` (centres unmarked) [Example 69, 3-[(4-methylmercapto-6-phenyl-1,3,5-triazine-2-yl)-thiomethyl]-7-[4-(1,4,5,6-tetrahydropyrimide-2-yl)-phenyl-acetamido]-Δ 3-cephem-4-carboxylicacid]: the MIC in assay [1] lay in the range of 10 to 50 µg/mL (≈ 15.4 to 77.2 µM); in assay [2], 0.0196 to 0.0391 µg/mL (≈ 0.0303 to 0.0604 µM); in assay [3], 0.156 to 0.391 µg/mL (≈ 0.241 to 0.604 µM); in assay [4] it was 0.000391 to 0.0078 µg/mL (≈ 0.000604 to 0.012 µM).

In the case of `O=C(Cc1ccc(C2=NCCCN2)cc1)NC1C(=O)N2C(C(=O)O)=C(CSc3nnnn3-c3ccccc3)CSC12` (centres unmarked) [Example 71, 3-[(1-phenyl-1-H-tetrazole-5-yl)-thiomethyl]-7-[4-(1,4,5,6-tetrahydropyrimide-2-yl)-phenyl-acetamido]-Δ 3-cephem-4-carboxylic acid], the MIC in assay [1] is 10 to 50 µg/mL (≈ 16.9 to 84.6 µM); in assay [2], 0.0625 to 0.078 µg/mL (≈ 0.106 to 0.132 µM); in assay [3] it was 0.5 to 1.25 µg/mL (≈ 0.846 to 2.12 µM); in assay [4], 0.000391 to 0.0078 µg/mL (≈ 0.000662 to 0.0132 µM).

For `O=C(COc1ccc(C2=NCCN2)cc1)NC1C(=O)N2C(C(=O)O)=C(CSc3nncs3)CSC12` (centres unmarked) [Example 73, 3-[(1,3,4-thiadiazole-2-yl)-thiomethyl]-7-[4-(imidazoline-2-yl)-phenoxyacetamido]-Δ 3-cephem-4-carboxylic acid], the MIC in assay [1] fell in the range of 10 to 50 µg/mL (≈ 18.8 to 93.9 µM); in assay [2] it was 0.0625 to 0.078 µg/mL (≈ 0.117 to 0.146 µM); in assay [3], 0.5 to 1.25 µg/mL (≈ 0.939 to 2.35 µM); in assay [4] it was 0.000391 to 0.0078 µg/mL (≈ 0.000734 to 0.0146 µM).

With `O=C(Cc1ccc(C2=NCCCN2)cc1)NC1C(=O)N2C(C(=O)O)=C(CSc3nnc(-c4ccccc4)s3)CSC12` (centres unmarked) [Example 80, 3-[(5-phenyl-1,3,4,-thiadiazole-2-yl)-thiomethyl]-7-[4-(1,4,5,6-tetrahydropyrimide-2-yl)-phenylacetamido]-Δ 3-cephem-4-carboxylic acid], the MIC in assay [1] is 10 to 50 µg/mL (≈ 16.5 to 82.4 µM); in assay [2], 0.0625 to 0.078 µg/mL (≈ 0.103 to 0.129 µM); in assay [3], 0.156 to 0.391 µg/mL (≈ 0.257 to 0.644 µM); in assay [4], 0.000391 to 0.0078 µg/mL (≈ 0.000644 to 0.0129 µM).

For `O=C(Cc1ccc(C2=NCCCN2)cc1)NC1C(=O)N2C(C(=O)O)=C(CSc3nc4ccccc4s3)CSC12` (centres unmarked) [Example 85, 3-[benzothiazole-2-yl-thiomethyl]-7-[4-(1,4,5,6-tetrahydropyrimide-2-yl)-phenylacetamido]-Δ 3-cephem-4-carboxylic acid], the MIC lay in the range of 10 to 50 µg/mL (≈ 17.2 to 86.2 µM) in assay [1], 0.0625 to 0.078 µg/mL (≈ 0.108 to 0.135 µM) in assay [2], 0.156 to 0.391 µg/mL (≈ 0.269 to 0.674 µM) in assay [3] and 0.000391 to 0.0078 µg/mL (≈ 0.000674 to 0.0135 µM) in assay [4].
